“And” between values parts separate entries of the source, which are not always exact repeats. Equal values may be shown once.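 Where inhibition never reached the appropriate level, the endpoint shown equals the highest concentration tested. Otherwise, values were interpolated linearly from a five-concentration, 48-hour dose response in 96-well plates. GI50: concentration for 50% inhibition of growth. TGI is the concentration that stops growth completely.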
Legend:
Experiment in all cases: growth of human tumour cells (NCI), 48 h
MALME-3M melanoma = test system: MALME-3M melanoma
OVCAR-3 ovarian = test system: OVCAR-3 ovarian
SNB-19 CNS = test system: SNB-19 CNS
A549 NSCLC = test system: A549 NSCLC
HS 578T breast = test system: HS 578T breast
HOP-62 NSCLC = test system: HOP-62 NSCLC
IGROV1 ovarian = test system: IGROV1 ovarian
MDA-MB-231 breast = test system: MDA-MB-231 breast
OVCAR-5 ovarian = test system: OVCAR-5 ovarian
COLO 205 colon = test system: COLO 205 colon

CSc1ccc2c(c1)C(=O)c1c-2n(CCCBr)c(=O)c2cc([N+](=O)[O-])ccc12
GI50 (MALME-3M melanoma): 11.6 µM
TGI (MALME-3M melanoma): > 100 µM
GI50 (OVCAR-3 ovarian): > 100 µM
TGI (OVCAR-3 ovarian): > 100 µM
GI50 (SNB-19 CNS): 3.78 µM
TGI (SNB-19 CNS): > 100 µM
GI50 (A549 NSCLC): 7.61 µM
TGI (A549 NSCLC): > 100 µM
GI50 (HS 578T breast): > 100 µM
TGI (HS 578T breast): > 100 µM
GI50 (HOP-62 NSCLC): 1.05 µM
TGI (HOP-62 NSCLC): 19.6 µM
GI50 (IGROV1 ovarian): 12.1 µM
TGI (IGROV1 ovarian): > 100 µM
GI50 (MDA-MB-231 breast): > 100 µM
TGI (MDA-MB-231 breast): > 100 µM
GI50 (OVCAR-5 ovarian): > 100 µM
TGI (OVCAR-5 ovarian): > 100 µM
GI50 (COLO 205 colon): 17.8 µM
TGI (COLO 205 colon): > 100 µM

C=C1C(=O)OC2CC(C)C3(O)CCC(=O)C3(C)CC12 (stereo not given)
TGI (MALME-3M melanoma): 69.5 µM
TGI (OVCAR-3 ovarian): 46.5 µM
TGI (SNB-19 CNS): 61.4 µM
TGI (A549 NSCLC): > 100 µM
TGI (HS 578T breast): 61.4 µM
TGI (HOP-62 NSCLC): > 100 µM
TGI (IGROV1 ovarian): 82.6 µM
TGI (MDA-MB-231 breast): > 100 µM
TGI (OVCAR-5 ovarian): 74.3 µM
TGI (COLO 205 colon): > 100 µM

c1ccc2c(c1)c1c(c3ccccc32)CN2CCCC2C1 (stereo not given)
TGI (MALME-3M melanoma): 7.14 µM
TGI (OVCAR-3 ovarian): 22.9 µM
TGI (SNB-19 CNS): > 22.5 µM
TGI (A549 NSCLC): 17.9 µM
TGI (HS 578T breast): 13.8 µM
TGI (HOP-62 NSCLC): > 31.9 µM
TGI (IGROV1 ovarian): 12 µM
TGI (MDA-MB-231 breast): 32.3 µM
TGI (OVCAR-5 ovarian): > 43.4 µM
TGI (COLO 205 colon): 13.8 µM

Cc1cc(C)c(NC(=O)c2sc3nc4c(cc3c2N)CN(Cc2ccccc2)CC4)c(C)c1
GI50 (MALME-3M melanoma): 3.44 µM
TGI (MALME-3M melanoma): 42 µM
GI50 (OVCAR-3 ovarian): 2.32 µM
TGI (OVCAR-3 ovarian): 12.6 µM
GI50 (SNB-19 CNS): 7.21 µM
TGI (SNB-19 CNS): > 100 µM
GI50 (A549 NSCLC): 4.11 µM
TGI (A549 NSCLC): > 100 µM
GI50 (HS 578T breast): 2.66 µM
TGI (HS 578T breast): 65.9 µM
GI50 (HOP-62 NSCLC): 7.73 µM
TGI (HOP-62 NSCLC): > 100 µM
GI50 (IGROV1 ovarian): 6.54 µM
TGI (IGROV1 ovarian): > 100 µM
GI50 (MDA-MB-231 breast): 5.75 µM
TGI (MDA-MB-231 breast): 58.9 µM
GI50 (OVCAR-5 ovarian): 12.5 µM
TGI (OVCAR-5 ovarian): > 100 µM
GI50 (COLO 205 colon): 2.98 µM
TGI (COLO 205 colon): 10.1 µM

C#COc1cccc(Nc2c(C#N)cnc3ncc(NC(=O)CCl)cc23)c1
GI50 (MALME-3M melanoma): 55.4 µM
TGI (MALME-3M melanoma): > 62.5 µM
GI50 (OVCAR-3 ovarian): 25.3 µM
TGI (OVCAR-3 ovarian): > 62.5 µM
GI50 (SNB-19 CNS): 32.1 µM
TGI (SNB-19 CNS): > 62.5 µM
GI50 (A549 NSCLC): 46.9 µM
TGI (A549 NSCLC): > 62.5 µM
GI50 (HS 578T breast): > 62.5 µM
TGI (HS 578T breast): > 62.5 µM
GI50 (HOP-62 NSCLC): > 62.5 µM
TGI (HOP-62 NSCLC): > 62.5 µM
GI50 (IGROV1 ovarian): 17.1 µM
TGI (IGROV1 ovarian): > 62.5 µM
GI50 (MDA-MB-231 breast): 32 µM
TGI (MDA-MB-231 breast): > 62.5 µM
GI50 (OVCAR-5 ovarian): > 62.5 µM
TGI (OVCAR-5 ovarian): > 62.5 µM
GI50 (COLO 205 colon): 40.1 µM
TGI (COLO 205 colon): > 62.5 µM

N=C(N)c1ccc2nc(-c3cc(CC(=O)N[C@@H](CC(=O)O)C(=O)O)cc(-c4cc(S(N)(=O)=O)ccc4O)c3O)[nH]c2c1
GI50 (MALME-3M melanoma): > 100 µM
TGI (MALME-3M melanoma): > 100 µM
GI50 (OVCAR-3 ovarian): > 100 µM
TGI (OVCAR-3 ovarian): > 100 µM
GI50 (SNB-19 CNS): > 100 µM
TGI (SNB-19 CNS): > 100 µM
GI50 (A549 NSCLC): > 100 µM
TGI (A549 NSCLC): > 100 µM
GI50 (HS 578T breast): > 100 µM
TGI (HS 578T breast): > 100 µM
GI50 (HOP-62 NSCLC): > 100 µM
TGI (HOP-62 NSCLC): > 100 µM
GI50 (IGROV1 ovarian): > 100 µM
TGI (IGROV1 ovarian): > 100 µM
GI50 (MDA-MB-231 breast): > 100 µM
TGI (MDA-MB-231 breast): > 100 µM
GI50 (OVCAR-5 ovarian): > 100 µM
TGI (OVCAR-5 ovarian): > 100 µM
GI50 (COLO 205 colon): > 100 µM
TGI (COLO 205 colon): > 100 µM

CCOC(=O)/C=C(/C)Sc1cc(O)c2ccccc2c1O
GI50 (MALME-3M melanoma): 1.93 µM
TGI (MALME-3M melanoma): 3.71 µM
GI50 (OVCAR-3 ovarian): 2 µM
TGI (OVCAR-3 ovarian): 5.1 µM
GI50 (SNB-19 CNS): 4.05 µM
TGI (SNB-19 CNS): 17 µM
GI50 (A549 NSCLC): 2.5 µM
TGI (A549 NSCLC): 5.99 µM
GI50 (HS 578T breast): 2.26 µM
TGI (HS 578T breast): 6.58 µM
GI50 (HOP-62 NSCLC): 3.02 µM
TGI (HOP-62 NSCLC): 12.9 µM
GI50 (IGROV1 ovarian): 2.26 µM
TGI (IGROV1 ovarian): 17.8 µM
GI50 (MDA-MB-231 breast): 2.67 µM
TGI (MDA-MB-231 breast): 15.3 µM
GI50 (OVCAR-5 ovarian): 17.5 µM
TGI (OVCAR-5 ovarian): 34 µM
GI50 (COLO 205 colon): 7.22 µM
TGI (COLO 205 colon): 20.7 µM

O=C(c1ccc(/C=C/c2n[nH]c3ccccc23)cc1)N1CCNCC1
GI50 (MALME-3M melanoma): 1.52 µM and 1.16 µM
TGI (MALME-3M melanoma): 3.09 µM and 9.38 µM
GI50 (OVCAR-3 ovarian): 9.32 µM and 8.01 µM
TGI (OVCAR-3 ovarian): > 10 µM and 24 µM
GI50 (SNB-19 CNS): 4.26 µM and 15.8 µM
TGI (SNB-19 CNS): > 10 µM and 33.2 µM
GI50 (A549 NSCLC): 2.95 µM and 2.57 µM
TGI (A549 NSCLC): > 10 µM and 39.4 µM
GI50 (HS 578T breast): 1.93 µM and 4.22 µM
TGI (HS 578T breast): 7.36 µM and 31.7 µM
GI50 (HOP-62 NSCLC): > 10 µM and 3.63 µM
TGI (HOP-62 NSCLC): > 10 µM and 19.3 µM
GI50 (IGROV1 ovarian): 5.32 µM and 3.14 µM
TGI (IGROV1 ovarian): > 10 µM and 19.1 µM
GI50 (MDA-MB-231 breast): 6.04 µM and 3.62 µM
TGI (MDA-MB-231 breast): > 10 µM and 18 µM
GI50 (OVCAR-5 ovarian): > 10 µM and 2.51 µM
TGI (OVCAR-5 ovarian): > 10 µM and 26.1 µM
GI50 (COLO 205 colon): 3.96 µM and 0.598 µM
TGI (COLO 205 colon): > 10 µM and 5.9 µM

O[C@H](c1cc(C(F)(F)F)nc2c(C(F)(F)F)cccc12)[C@@H]1CCCCN1
GI50 (MALME-3M melanoma): 0.875 µM
TGI (MALME-3M melanoma): 5.73 µM
GI50 (OVCAR-3 ovarian): 3.38 µM
TGI (OVCAR-3 ovarian): 11.5 µM
GI50 (SNB-19 CNS): 7.19 µM
TGI (SNB-19 CNS): 20.9 µM
GI50 (A549 NSCLC): 5.25 µM
TGI (A549 NSCLC): 16.3 µM
GI50 (HS 578T breast): 4.35 µM
TGI (HS 578T breast): 25.5 µM
GI50 (HOP-62 NSCLC): 4.73 µM
TGI (HOP-62 NSCLC): 11.8 µM
GI50 (IGROV1 ovarian): 1.17 µM
TGI (IGROV1 ovarian): 4.14 µM
GI50 (MDA-MB-231 breast): 1.78 µM
TGI (MDA-MB-231 breast): 4.08 µM
GI50 (OVCAR-5 ovarian): 7.21 µM
TGI (OVCAR-5 ovarian): 20.7 µM
GI50 (COLO 205 colon): 1.98 µM
TGI (COLO 205 colon): 4.27 µM

O=C1NC(=O)C(c2cccc([N+](=O)[O-])c2)=C1Nc1cc(Cl)c(O)c(Cl)c1
GI50 (MALME-3M melanoma): > 25 µM
TGI (MALME-3M melanoma): > 25 µM
GI50 (OVCAR-3 ovarian): > 17.9 µM
TGI (OVCAR-3 ovarian): > 25 µM
GI50 (SNB-19 CNS): > 25 µM
TGI (SNB-19 CNS): > 25 µM
GI50 (A549 NSCLC): > 25 µM
TGI (A549 NSCLC): > 25 µM
GI50 (HS 578T breast): 7.03 µM
TGI (HS 578T breast): > 25 µM
GI50 (HOP-62 NSCLC): > 25 µM
TGI (HOP-62 NSCLC): > 25 µM
GI50 (IGROV1 ovarian): > 25 µM
TGI (IGROV1 ovarian): > 25 µM
GI50 (MDA-MB-231 breast): > 25 µM
TGI (MDA-MB-231 breast): > 25 µM
GI50 (OVCAR-5 ovarian): > 25 µM
TGI (OVCAR-5 ovarian): > 25 µM
GI50 (COLO 205 colon): > 25 µM
TGI (COLO 205 colon): > 25 µM

From PubChem BioAssay (NCI)
